Where “and” joins values, the source holds several entries; their conditions need not be identical. Equal entries are not always repeated. Inconclusive results and toxic doses are left out. How the source made its calls: active means survival T/C of 150% or more; inactive means T/C below 125% in these data.
Tested on: P388 leukemia ip, CD2F1 mice, survival T/C
Experiment: NCI In Vivo Anticancer Drug Screen. Data for tumor model P388 Leukemia (intraperitoneal) in CD2F1 (CDF1) mice
Settings: endpoint: median survival time, higher = longer survival
Outline: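 Mice carrying the transplanted tumor received test compound or vehicle. Survival was recorded in each group, and the value is the treated-group measurement divided by that of the vehicle-treated control group.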

[1] = dose: 50.0 mg/kg/injection, schedule: Q01DX009 (ip), vehicle: saline with Tween-80
[2] = dose: 50.0 mg/kg/injection, schedule: Q04DX003 (ip), vehicle: Klucel (hydroxypropylcellulose) (HPC)
[3] = dose: 100.0 mg/kg/injection, schedule: Q01DX009 (ip), vehicle: saline with Tween-80
[4] = dose: 200.0 mg/kg/injection, schedule: Q01DX009 (ip), vehicle: saline with Tween-80
[5] = dose: 60.0 mg/kg/injection, schedule: Q01DX005 (ip), vehicle: saline
[6] = dose: 120.0 mg/kg/injection, schedule: Q01DX005 (ip), vehicle: saline
[7] = dose: 240.0 mg/kg/injection, schedule: Q01DX005 (ip), vehicle: saline

Measured: T/C

COc1cc(Br)cc(/C=C/[N+](=O)[O-])c1OC
inactive: [1] 115 % of control

CC(NNC(=S)N1CCN(c2ccccn2)CC1)c1cc2ccccc2cn1 (stereo not given)
inactive: dose: 12.5 mg/kg/injection, schedule: Q04DX003 (ip), vehicle: Klucel (hydroxypropylcellulose) (HPC) 96 % of control | dose: 25.0 mg/kg/injection, schedule: Q04DX003 (ip), vehicle: Klucel (hydroxypropylcellulose) (HPC) 88 % of control | [2] 88 % of control | dose: 400.0 mg/kg/injection, schedule: Q04DX003 (ip), vehicle: Klucel (hydroxypropylcellulose) (HPC) 86 % of control

O=C(O)CC(NC(=O)CCl)C(=O)O (stereo not given)
inactive: dose: 50.0 mg/kg/injection, schedule: Q01DX009 (ip), vehicle: saline 99 % of control and 101 % of control | dose: 100.0 mg/kg/injection, schedule: Q01DX009 (ip), vehicle: saline 100 % of control and 101 % of control | dose: 200.0 mg/kg/injection, schedule: Q01DX009 (ip), vehicle: saline 101 % of control and 92 % of control

COC1CC(C23C4CC2C3C2CC/C=C\CCC24)CC1OC (stereo not given)
inactive: [1] 98 % of control | [3] 100 % of control | [4] 102 % of control

CCCCN(CCCC)c1cc(=O)nc2ccccn12
inactive: [5] 101 % of control | [6] 101 % of control | [7] 100 % of control

c1ccc(C2CC(c3ccc(C4=NN(c5ccccc5)C(c5ccccc5)C4)cc3)=NN2c2ccccc2)cc1 (stereo not given)
inactive: dose: 25.0 mg/kg/injection, schedule: Q04DX003 (ip), vehicle: saline with Tween-80 102 % of control | dose: 50.0 mg/kg/injection, schedule: Q04DX003 (ip), vehicle: saline with Tween-80 91 % of control | dose: 100.0 mg/kg/injection, schedule: Q04DX003 (ip), vehicle: saline with Tween-80 87 % of control | dose: 200.0 mg/kg/injection, schedule: Q04DX003 (ip), vehicle: saline with Tween-80 89 % of control | dose: 400.0 mg/kg/injection, schedule: Q04DX003 (ip), vehicle: saline with Tween-80 100 % of control

CCOC(=O)c1cc(NC(C)=O)cn1C
inactive: [1] 102 % of control | [3] 104 % of control | [4] 103 % of control

O=C1NNC(c2ccccc2)C1(Cl)Cl (stereo not given)
inactive: dose: 12.5 mg/kg/injection, schedule: Q01DX009 (ip), vehicle: saline with Tween-80 101 % of control | [1] 99 % of control

COC(=O)C1(C)C(=O)C=CC2(C)C1CC(OC(C)=O)C1(C)C2C(=O)C(OC(C)=O)C2(C)C(c3ccoc3)CC3OC321 (stereo not given)
inactive: dose: 0.75 mg/kg/injection, schedule: Q01DX005 (ip), vehicle: Klucel (hydroxypropylcellulose) (HPC) 99 % of control | dose: 1.5 mg/kg/injection, schedule: Q01DX005 (ip), vehicle: Klucel (hydroxypropylcellulose) (HPC) 101 % of control | dose: 3.0 mg/kg/injection, schedule: Q01DX005 (ip), vehicle: Klucel (hydroxypropylcellulose) (HPC) 97 % of control | dose: 6.0 mg/kg/injection, schedule: Q01DX005 (ip), vehicle: Klucel (hydroxypropylcellulose) (HPC) 97 % of control | dose: 12.0 mg/kg/injection, schedule: Q01DX005 (ip), vehicle: Klucel (hydroxypropylcellulose) (HPC) 98 % of control

Cc1ccc(Nc2cccc3c2C(=O)c2cccc(Nc4ccc(C)cc4S(=O)(=O)O)c2C3=O)c(S(=O)(=O)O)c1
inactive: [1] 108 % of control | [3] 100 % of control | [4] 101 % of control

COC(=O)c1ccc(SCC/C(CN2C(=O)c3ccccc3C2=O)=N\O)cc1
inactive: dose: 50.0 mg/kg/injection, schedule: Q01DX009 (ip), vehicle: Klucel (hydroxypropylcellulose) (HPC) 95 % of control | dose: 100.0 mg/kg/injection, schedule: Q01DX009 (ip), vehicle: Klucel (hydroxypropylcellulose) (HPC) 99 % of control | dose: 200.0 mg/kg/injection, schedule: Q01DX009 (ip), vehicle: Klucel (hydroxypropylcellulose) (HPC) 88 % of control

C=C(CCS(=O)c1ccccc1)CC(CC(=C)COC(C)=O)S(=O)(=O)c1ccccc1 (stereo not given)
inactive: dose: 60.0 mg/kg/injection, schedule: Q01DX005 (ip), vehicle: Klucel (hydroxypropylcellulose) (HPC) 99 % of control | dose: 120.0 mg/kg/injection, schedule: Q01DX005 (ip), vehicle: Klucel (hydroxypropylcellulose) (HPC) 99 % of control | dose: 240.0 mg/kg/injection, schedule: Q01DX005 (ip), vehicle: Klucel (hydroxypropylcellulose) (HPC) 98 % of control

O=C(c1cccc(C(=O)N2CCOCC2)n1)N1CCOCC1
inactive: [5] 106 % of control | [6] 100 % of control | [7] 106 % of control

ClCCN(CCN(CCCl)c1cccc2ccccc12)c1cccc2ccccc12
inactive: [2] 104 % of control | dose: 100.0 mg/kg/injection, schedule: Q04DX003 (ip), vehicle: Klucel (hydroxypropylcellulose) (HPC) 103 % of control | dose: 200.0 mg/kg/injection, schedule: Q04DX003 (ip), vehicle: Klucel (hydroxypropylcellulose) (HPC) 107 % of control

CC(=O)c1cc2c(cc1I)OCO2
inactive: dose: 100.0 mg/kg/injection, schedule: Q01DX001 (ip), vehicle: Klucel (hydroxypropylcellulose) (HPC) 101 % of control | dose: 200.0 mg/kg/injection, schedule: Q01DX001 (ip), vehicle: Klucel (hydroxypropylcellulose) (HPC) 99 % of control | dose: 400.0 mg/kg/injection, schedule: Q01DX001 (ip), vehicle: Klucel (hydroxypropylcellulose) (HPC) 101 % of control

O=[N+]([O-])c1ccc2c(c1)SC1=NN3C(O)COC(OCc4ccccc4)C3N12 (stereo not given)
inactive: dose: 100.0 mg/kg/injection, schedule: Q04DX002 (ip), vehicle: saline 97 % of control | dose: 200.0 mg/kg/injection, schedule: Q04DX002 (ip), vehicle: saline 100 % of control | dose: 400.0 mg/kg/injection, schedule: Q04DX002 (ip), vehicle: saline 93 % of control

NC(=S)N/N=C\c1nccc2ncccc12
inactive: dose: 6.25 mg/kg/injection, schedule: Q04DX002 (ip), vehicle: saline with Tween-80 113 % of control | dose: 12.5 mg/kg/injection, schedule: Q04DX002 (ip), vehicle: saline with Tween-80 124 % of control

COC(=O)c1nc(=S)[nH]c(C(=O)OC)c1C(=O)c1ccc(OC)cc1
inactive: [5] 100 % of control | [6] 96 % of control | [7] 103 % of control
